A short description of this data set: Solvent solubility screen. It counts as physicochemical. Conditions: thermodynamic from solid, read-out: Approximate Solubility. Here is the method: Between each addition, the mixture was checked for dissolution and where no dissolution was apparent, the mixture was heated to ca. 40° C. and checked again. Samples where the material dissolved, were left to evaporate. Any solids produced from evaporation samples were analyzed by XRPD in order to assess the polymorphic form.
The solvent systems used during the solvent solubility screen, together with the corresponding ICH Class, are detailed in Table 4.

Each structure is given as a SMILES string. In brackets after ≈: the same amount, converted by molar mass. Where two headings read alike, the source gives them in different places. Where only a bound is given, the exact number is not on record here.

Broadly, the solubility is the dissolved amount per volume that the medium holds. With `COC(=O)c1ccc2c(c1)NC(=O)/C2=C(\Nc1ccc(N(C)C(=O)CN2CCN(C)CC2)cc1)c1ccccc1` [Nintedanib, methyl (3Z)-3-[[4-[methyl-[2-(4-methylpiperazin-1-yl)acetyl]amino]anilino]-phenylmethylidene]-2-oxo-1H-indole-6-carboxylate], the solubility runs as follows: (1-butanol, 40 °C, organic solvent or mixture) below 10000 µg/mL; (1-propanol, 40 °C, organic solvent or mixture) below 10000 µg/mL; (2-propanol, 40 °C, organic solvent or mixture) below 11000 µg/mL; (40 °C, aqueous with cosolvent or surfactant or cyclodextrin, 40% Methanol: 60% Water (% v/v)) below 10000 µg/mL; (50% 2-propanol: 50% water (% v/v), 40 °C, aqueous with cosolvent or surfactant or cyclodextrin) below 10000 µg/mL; (N,N′-dimethylacetamide, organic solvent or mixture) 26000 µg/mL (≈ 48.2 mM). In addition, the solubility (THF, 40 °C, organic solvent or mixture) is below 10000 µg/mL; the solubility (acetone, 40 °C, organic solvent or mixture) was below 10000 µg/mL; the solubility (acetonitrile, 40 °C, organic solvent or mixture) was below 10000 µg/mL; the solubility (anisole, 40 °C, organic solvent or mixture) was below 10000 µg/mL; the solubility (dichloromethane, organic solvent or mixture) is 17000 µg/mL (≈ 31.5 mM); the solubility (dimethylsulfoxide, 40 °C, organic solvent or mixture) is below 10000 µg/mL. Also, the solubility reads like this: (ethanol, 40 °C, organic solvent or mixture) below 10000 µg/mL; (ethyl acetate, 40 °C, organic solvent or mixture) below 10000 µg/mL; (ethyl ether, 40 °C, organic solvent or mixture) below 10000 µg/mL; (heptane, 40 °C, organic solvent or mixture) below 10000 µg/mL; (isopropyl acetate, 40 °C, organic solvent or mixture) below 10000 µg/mL; (methanol, 40 °C, organic solvent or mixture) below 11000 µg/mL. Also, the solubility (methylethyl ketone, 40 °C, organic solvent or mixture) is below 10000 µg/mL; the solubility (methylisobutyl ketone, 40 °C, organic solvent or mixture) is below 10000 µg/mL; the solubility (n-hexane, 40 °C, organic solvent or mixture) is below 10000 µg/mL; the solubility (tert-butylmethyl ether, 40 °C, organic solvent or mixture) is below 11000 µg/mL; the solubility (toluene, 40 °C, organic solvent or mixture) was below 10000 µg/mL; the solubility (water, 40 °C, water) was below 10000 µg/mL.

(Values after patent US12090225B2 (Avalyn Pharma Inc., priority 2018, dated 2024).)
